From US11440921B2, “Salts, crystal forms, and production methods thereof” (Sunovion Pharmaceuticals Inc., priority 2018, dated 2022)

Procedure: Approximately 200 mg of selected salts were weighed into clear glass HPLC vials. One milliliter of de-ionized water was added to each vial.

- solubility in de-ionized water: freely soluble
- USP Descriptor (de-ionized water): Freely Soluble
- Final solution PH (de-ionized water, approx. 200 mg salt in 1 mL): 6.2
- Solubility (mgA/mL) (de-ionized water, expressed in terms of free base): >107 mgA/mL
Substance: (S)-(4,5-dihydro-7H-thieno[2,3-c]pyran-7-yl)-N-methylmethanamine R-mandelate [(S)-TPMA R-mandelate]
